Results: US20080146641A1, “ANTIBACTERIAL COMPOSITION” (priority 2001, published 2008)
Values after ≈ are worked out from the molar mass of the structure shown. Where two headings read alike, the source gives them in different places.

Key:
[1] = system: Escherichia coli IFO 3301; assay: Minimum inhibitory concentration, agar plate for measuring susceptibility; assay type: cell-based; conditions: for MIC: Escherichia coli, IFO3301, read-out: Minimum Inhibitory Concentration CaO, Escherichia coli IFO 3301 (Gram-negative bacteria)
[2] = system: Staphylococcus aureus IFO 12732; assay: as above; assay type: cell-based; conditions: for MIC: Staphylococcus aureus, IFO12732, read-out: Minimum Inhibitory Concentration CaO, Staphylococcus aureus IFO 12732 (Gram-positive bacteria)
[3] = system: Salmonella entriditis IFO 3313; assay: Antibacterial spectrum, MIC on Muller Hinton Agar; assay type: cell-based, Salmonella enteritidis; conditions: Comparison 1 is a reference value (suspension at not less than 1400 μg)
[4] = system: Lactobacillus plantarum (lactic acid bacterium) IFO 3070; assay: Antibacterial spectrum, MIC on Brain Heart Infusion Agar; assay type: cell-based; conditions: Comparison 1 is a reference value
[5] = system: Saccharomyces cerevisiae IFO 1950; assay: Antibacterial spectrum, MIC on Sabouraud Glucose agar medium; assay type: cell-based; conditions: Comparison 1 is a reference value
Protocol: […] Additionally, as to the other α-amino acids used as the raw materials, flat plates for measuring susceptibility each of which contains a 500 to 20,000 μg/ml α-amino acid were prepared. […] The bacterial liquid for inoculation was drawn In lines and painted 1 to 2 cm on each flat plate for measuring susceptibility with a plastic loop, and incubated at 35° C. 1° C. for 18 to 20 hours. The lowest concentrations in which the painted parts were blocked to grow were defined as the minimum bacteriostasis concentrations of the antibacterial compositions, and the calcium oxide, the calcium hydroxide, and the α-amino acids used as the raw materials in the embodiments 1 through 16.
The minimum inhibitory concentrations to these typical kinds of bacteria were measured, however, the antibacterial compositions of the present invention are not to be restricted to the kinds of bacteria shown in the embodiments. Although the measuring method was similar to that of the embodiment 17, as the culture media for measuring susceptibility, Muller Hinton Agar (Difco) was used for enterococcus, cereus, salmonella, and pseudomonas aeruginosa; Brain Heart Infusion Agar (Difco) was used for lactobacillus; GAM agar medium (Nissui Pharmaceutical Co., Ltd.) was used for welsh; and Sabouraud Glucoss agar medium (Eiken Chemical Co., Ltd.) was used for saccharomyces.

[6] = system: Clostridium perfingens NCTC 8283; assay type: cell-based, Clostridium perfringens; conditions: Comparison 1 is a reference value (suspension at not less than 1400 μg)
[7] = system: Bacillus cereus IFO 13494; assay: Antibacterial spectrum, MIC on Muller Hinton Agar; assay type: cell-based; conditions: Comparison 1 is a reference value (suspension at not less than 1400 μg)
[8] = system: Pseudomonas aeruginosa IFO 13275; assay: Antibacterial spectrum, MIC on Muller Hinton Agar; assay type: cell-based; conditions: Comparison 1 is a reference value (suspension at not less than 1400 μg)
[9] = system: Enterococcus faecalis IFO 129B4; assay: Antibacterial spectrum, MIC on Muller Hinton Agar; assay type: cell-based; conditions: Comparison 1 is a reference value (suspension at not less than 1400 μg)
[10] = cited from earlier work
[11] = Antibacterial effect, test not described
[12] = Table 2, raw materials, amino acid plates held 500 to 20,000 μg/ml α-amino acid

Row | Compound | MIC [1, 12] [µg/mL] | MIC [2, 12] [µg/mL] | further results
1 | CC[C@H](C)[C@H](N)C(=O)O [Comparison 7, isoleucine] | > 10000 | > 10000 | 
2 | NCC(=O)O [Comparison 3, glycine] | > 10000 | > 10000 | 
3 | C[C@@H](O)[C@H](N)C(=O)O [Comparison 8, threonine] | > 20000 | > 20000 | 
4 | NC(=O)C[C@H](N)C(=O)O [Comparison 11, asparagine] | > 20000 | > 20000 | 
5 | CC(C)[C@H](N)C(=O)O [Comparison 5, valine] | > 10000 | > 10000 | 
6 | N[C@@H](CSSC[C@H](N)C(=O)O)C(=O)O [Comparison 9, cystine] | > 20000 | 20000 (≈ 83.2 mM) | 
7 | [O]=[Ca] [Comparison 1, calcium oxide] |  |  | Minimum Inhibitory Concentration CaO; Escherichia coli IFO 3301 (Gram-negative bacteria) [1, 12]: 1250 µg/mL; Minimum Inhibitory Concentration CaO, Salmonella enteritidis [3]: 2500 µg/mL; Minimum Inhibitory Concentration CaO, Lactobachillus faecalis [4]: 313 µg/mL; Minimum Inhibitory Concentration CaO, Saccgaromyces cervisiae [5]: 625 µg/mL; Minimum Inhibitory Concentration CaO, Clostridium perfringens [6]: 5000 µg/mL; Minimum Inhibitory Concentration CaO, Bacilluscereus [7]: 2500 µg/mL; Minimum Inhibitory Concentration CaO, Pseudomonas aeruginosa [8]: 2500 µg/mL; Minimum Inhibitory Concentration CaO, Enterococcus faecalis [9]: 5000 µg/mL; dissolves in water ([10]; 20° C.): 0.14 wt %; water-solubility ([10]; at 20° C.): 1400 μg/gH2O; Minimum Inhibitory Concentration CaO; Staphylococcus aureus IFO 12732 (Gram-positive bacteria) [2, 12]: 1000 µg/mL
8 | N[C@@H](Cc1c[nH]cn1)C(=O)O [Comparison 14, hystidine] |  |  | Minimum Inhibitory Concentration CaO; Escherichia coli IFO 3301 (Gram-negative bacteria) [1, 12]: >20000 µg/mL; Minimum Inhibitory Concentration CaO; Staphylococcus aureus IFO 12732 (Gram-positive bacteria) [2, 12]: >20000 µg/mL
9 | [Ca+2].[OH-].[OH-] [Comparison 2, calcium hydroxide] |  |  | Minimum Inhibitory Concentration CaO; Escherichia coli IFO 3301 (Gram-negative bacteria) [1]: 900 µg/mL; Minimum Inhibitory Concentration CaO; Staphylococcus aureus IFO 12732 (Gram-positive bacteria) [2]: 850 µg/mL
10 | CSCC[C@H](N)C(=O)O [Comparison 10, Methionine] | > 10000 | > 10000 | 
11 | N[C@@H](CCC(=O)[O-])C(=O)[O-].[Ca+2] [calcium glutamate] |  |  | antibacterial effect / antibacterial property [11]: did not have antibacterial property
12 | N[C@@H](CC(=O)[O-])C(=O)[O-].[Ca+2] [aspartate calcium] |  |  | antibacterial effect / antibacterial property [11]: did not have antibacterial property
13 | NC(=O)CC[C@H](N)C(=O)O [Comparison 12, glutamine] | > 20000 | > 20000 | 
14 | CC(C)C[C@H](N)C(=O)O [Comparison 6, leucine] | > 10000 | > 10000 | 
15 | C[C@H](N)C(=O)O [Comparison 4, alanine] | > 10000 | > 10000 | 
